Data from patent publication US9439432B2, “Phenylisoxazoline-based compound having herbicidal activity and use thereof” (MOGHU RESEARCH CENTER LTD, priority 2011, dated 2016).

test system: Soybean; assay: Post-emergence treatment, phytotoxicity to soybean; assay type: in vivo; conditions: post-emergence (about 3 leaf stage), 1,000 g/ha, 4 weeks after spraying, scale 0 to 10 (0: no effects, 10: complete death)
Description: (§1) A rectangular plastic pot having a surface area of 300 cm^2 was filled with sandy loam soil and mixed bed soil which were mixed at a ratio of 1:1, and then, barnyardrass (Echinochloa crusgalli), large crabgrass (Digitaria sanguinalis), blackgrass (Alopecurus myosuroides), and annual bluegrass (Poa annua), which are grass weeds, were seeded thereto. In a pot that was prepared as described above, seeds of corn, soybean, cotton, wheat, and rice were seeded. The pots were irrigated, and one day after, chemicals were sprayed thereto. The spraying was performed by using a track sprayer (R&D Sprayer, USA) equipped with a Teejet 8002 (Spraying Systems Co., USA) nozzle, and a spraying amount was adjusted at 300 L/ha. A spraying solution was prepared by dissolving test materials or references in acetone and adding the same amount of 0.2%(v/v) tween 20 aqueous solution thereto. Application rates were 500, 250, 125, and 62.5 g/ha. The pots were placed in a greenhouse in which during day, the temperature was maintained at a temperature of 25 to 30° C., and during night, the temperature was maintained at a temperature of 15 to 25° C., and the pots were periodically irrigated. Four weeks after the spraying the test materials or References, effects and phytotoxicity of the respective weeds and crops were evaluated in a scale of 0 to 10 (0: no effects, 10: complete death), and results thereof are shown in Table 4 below.
(§2) Pots containing crops and weeds were prepared in the same manner as in Example 7, and then, in the second week in which crops and weeds entered into about 3 leaf stage, the test materials and the references were sprayed thereto in the same manner as described above. The rates were 1,000, 500, 250, and 125 g/ha. Four weeks after the spraying of the test materials or the references, herbicidal efficacy and phytotoxicity to the respective weeds and crops were evaluated in a scale of 0 to 10 (0: no effects, 10: complete death).

Row | Structure (SMILES) | Phytotoxicity, Soybean
1 | CC1(COCc2c(F)cccc2F)CC(c2ccccc2F)=NO1 (stereo not shown) [Compound 4, 5-((2,6-difluorobenzyloxy)methyl)-3-(2-fluorophenyl)-5-methyl-4,5-dihydroisoxazole] | 1

test system: Cotton; assay: Post-emergence treatment, phytotoxicity to cotton; assay type: in vivo; conditions: post-emergence (about 3 leaf stage), 1,000 g/ha, 4 weeks after spraying, scale 0 to 10 (0: no effects, 10: complete death)
Description: as §1, §2

Row | Structure (SMILES) | Phytotoxicity, Cotton
2 | CC1(COCc2c(F)cccc2F)CC(c2ccccc2F)=NO1 (stereo not shown) [Compound 4, 5-((2,6-difluorobenzyloxy)methyl)-3-(2-fluorophenyl)-5-methyl-4,5-dihydroisoxazole] | 0

test system: Wheat; assay: Post-emergence treatment, phytotoxicity to wheat; assay type: in vivo; conditions: post-emergence (about 3 leaf stage), 1,000 g/ha, 4 weeks after spraying, scale 0 to 10 (0: no effects, 10: complete death)
Description: as §1, §2

Row | Structure (SMILES) | Phytotoxicity, Wheat
3 | CC1(COCc2c(F)cccc2F)CC(c2ccccc2F)=NO1 (stereo not shown) [Compound 4, 5-((2,6-difluorobenzyloxy)methyl)-3-(2-fluorophenyl)-5-methyl-4,5-dihydroisoxazole] | 1

test system: Rice; assay: Post-emergence treatment, phytotoxicity to rice; assay type: in vivo; conditions: post-emergence (about 3 leaf stage), 1,000 g/ha, 4 weeks after spraying, scale 0 to 10 (0: no effects, 10: complete death)
Description: as §1, §2

Row | Structure (SMILES) | Phytotoxicity, Rice
4 | CC1(COCc2c(F)cccc2F)CC(c2ccccc2F)=NO1 (stereo not shown) [Compound 4, 5-((2,6-difluorobenzyloxy)methyl)-3-(2-fluorophenyl)-5-methyl-4,5-dihydroisoxazole] | 2

test system: Echinochloa crusgalli; assay: Post-emergence treatment, herbicidal efficacy on barnyardgrass; assay type: in vivo; conditions: post-emergence, 125 g/ha, 4 weeks after spraying, scale 0 to 10
Description: as §1, §2

Row | Structure (SMILES) | Herbicidal efficacy, Echinochloa crusgalli
5 | CC1(COCc2c(F)cccc2F)CC(c2ccccc2F)=NO1 (stereo not shown) [Compound 4, 5-((2,6-difluorobenzyloxy)methyl)-3-(2-fluorophenyl)-5-methyl-4,5-dihydroisoxazole] | 5

same assay, conditions: post-emergence, 250 g/ha, 4 weeks after spraying, scale 0 to 10

Row | Structure (SMILES) | Herbicidal efficacy, Echinochloa crusgalli
6 | CC1(COCc2c(F)cccc2F)CC(c2ccccc2F)=NO1 (stereo not shown) [Compound 4, 5-((2,6-difluorobenzyloxy)methyl)-3-(2-fluorophenyl)-5-methyl-4,5-dihydroisoxazole] | 8

same assay, conditions: post-emergence, 500 g/ha, 4 weeks after spraying, scale 0 to 10

Row | Structure (SMILES) | Herbicidal efficacy, Echinochloa crusgalli
7 | CC1(COCc2c(F)cccc2F)CC(c2ccccc2F)=NO1 (stereo not shown) [Compound 4, 5-((2,6-difluorobenzyloxy)methyl)-3-(2-fluorophenyl)-5-methyl-4,5-dihydroisoxazole] | 10

same assay, conditions: post-emergence, 1,000 g/ha, 4 weeks after spraying, scale 0 to 10

Row | Structure (SMILES) | Herbicidal efficacy, Echinochloa crusgalli
8 | CC1(COCc2c(F)cccc2F)CC(c2ccccc2F)=NO1 (stereo not shown) [Compound 4, 5-((2,6-difluorobenzyloxy)methyl)-3-(2-fluorophenyl)-5-methyl-4,5-dihydroisoxazole] | 10

test system: Digitaria sanguinalis; assay: Post-emergence treatment, herbicidal efficacy on large crabgrass; assay type: in vivo; conditions: post-emergence, 125 g/ha, 4 weeks after spraying, scale 0 to 10
Description: as §1, §2

Row | Structure (SMILES) | Herbicidal efficacy, Digitaria sanguinalis
9 | CC1(COCc2c(F)cccc2F)CC(c2ccccc2F)=NO1 (stereo not shown) [Compound 4, 5-((2,6-difluorobenzyloxy)methyl)-3-(2-fluorophenyl)-5-methyl-4,5-dihydroisoxazole] | 6

same assay, conditions: post-emergence, 250 g/ha, 4 weeks after spraying, scale 0 to 10

Row | Structure (SMILES) | Herbicidal efficacy, Digitaria sanguinalis
10 | CC1(COCc2c(F)cccc2F)CC(c2ccccc2F)=NO1 (stereo not shown) [Compound 4, 5-((2,6-difluorobenzyloxy)methyl)-3-(2-fluorophenyl)-5-methyl-4,5-dihydroisoxazole] | 6

same assay, conditions: post-emergence, 500 g/ha, 4 weeks after spraying, scale 0 to 10

Row | Structure (SMILES) | Herbicidal efficacy, Digitaria sanguinalis
11 | CC1(COCc2c(F)cccc2F)CC(c2ccccc2F)=NO1 (stereo not shown) [Compound 4, 5-((2,6-difluorobenzyloxy)methyl)-3-(2-fluorophenyl)-5-methyl-4,5-dihydroisoxazole] | 10

same assay, conditions: post-emergence, 1,000 g/ha, 4 weeks after spraying, scale 0 to 10

Row | Structure (SMILES) | Herbicidal efficacy, Digitaria sanguinalis
12 | CC1(COCc2c(F)cccc2F)CC(c2ccccc2F)=NO1 (stereo not shown) [Compound 4, 5-((2,6-difluorobenzyloxy)methyl)-3-(2-fluorophenyl)-5-methyl-4,5-dihydroisoxazole] | 10

test system: Poa annua; assay: Post-emergence treatment, herbicidal efficacy on annual bluegrass; assay type: in vivo; conditions: post-emergence, 125 g/ha, 4 weeks after spraying, scale 0 to 10
Description: as §1, §2

Row | Structure (SMILES) | Herbicidal efficacy, Poa annua
13 | CC1(COCc2c(F)cccc2F)CC(c2ccccc2F)=NO1 (stereo not shown) [Compound 4, 5-((2,6-difluorobenzyloxy)methyl)-3-(2-fluorophenyl)-5-methyl-4,5-dihydroisoxazole] | 6

same assay, conditions: post-emergence, 250 g/ha, 4 weeks after spraying, scale 0 to 10

Row | Structure (SMILES) | Herbicidal efficacy, Poa annua
14 | CC1(COCc2c(F)cccc2F)CC(c2ccccc2F)=NO1 (stereo not shown) [Compound 4, 5-((2,6-difluorobenzyloxy)methyl)-3-(2-fluorophenyl)-5-methyl-4,5-dihydroisoxazole] | 7

same assay, conditions: post-emergence, 500 g/ha, 4 weeks after spraying, scale 0 to 10

Row | Structure (SMILES) | Herbicidal efficacy, Poa annua
15 | CC1(COCc2c(F)cccc2F)CC(c2ccccc2F)=NO1 (stereo not shown) [Compound 4, 5-((2,6-difluorobenzyloxy)methyl)-3-(2-fluorophenyl)-5-methyl-4,5-dihydroisoxazole] | 10

same assay, conditions: post-emergence, 1,000 g/ha, 4 weeks after spraying, scale 0 to 10

Row | Structure (SMILES) | Herbicidal efficacy, Poa annua
16 | CC1(COCc2c(F)cccc2F)CC(c2ccccc2F)=NO1 (stereo not shown) [Compound 4, 5-((2,6-difluorobenzyloxy)methyl)-3-(2-fluorophenyl)-5-methyl-4,5-dihydroisoxazole] | 10

test system: Alopecurus myosuroides; assay: Post-emergence treatment, herbicidal efficacy on blackgrass; assay type: in vivo; conditions: post-emergence, 125 g/ha, 4 weeks after spraying, scale 0 to 10
Description: as §1, §2

Row | Structure (SMILES) | Herbicidal efficacy, Alopecurus myosuroides
17 | CC1(COCc2c(F)cccc2F)CC(c2ccccc2F)=NO1 (stereo not shown) [Compound 4, 5-((2,6-difluorobenzyloxy)methyl)-3-(2-fluorophenyl)-5-methyl-4,5-dihydroisoxazole] | 0

same assay, conditions: post-emergence, 250 g/ha, 4 weeks after spraying, scale 0 to 10

Row | Structure (SMILES) | Herbicidal efficacy, Alopecurus myosuroides
18 | CC1(COCc2c(F)cccc2F)CC(c2ccccc2F)=NO1 (stereo not shown) [Compound 4, 5-((2,6-difluorobenzyloxy)methyl)-3-(2-fluorophenyl)-5-methyl-4,5-dihydroisoxazole] | 4

same assay, conditions: post-emergence, 500 g/ha, 4 weeks after spraying, scale 0 to 10

Row | Structure (SMILES) | Herbicidal efficacy, Alopecurus myosuroides
19 | CC1(COCc2c(F)cccc2F)CC(c2ccccc2F)=NO1 (stereo not shown) [Compound 4, 5-((2,6-difluorobenzyloxy)methyl)-3-(2-fluorophenyl)-5-methyl-4,5-dihydroisoxazole] | 9

same assay, conditions: post-emergence, 1,000 g/ha, 4 weeks after spraying, scale 0 to 10

Row | Structure (SMILES) | Herbicidal efficacy, Alopecurus myosuroides
20 | CC1(COCc2c(F)cccc2F)CC(c2ccccc2F)=NO1 (stereo not shown) [Compound 4, 5-((2,6-difluorobenzyloxy)methyl)-3-(2-fluorophenyl)-5-methyl-4,5-dihydroisoxazole] | 10

test system: grass weeds including barnyardrass, large crabgrass, and annual bluegrass; assay: Pre-emergence treatment, grass weeds overall; assay type: in vivo; conditions: relative to reference compounds
Description: as §1

Row | Structure (SMILES) | efficacy stronger than the References
21 | CC1(COCc2c(F)cccc2F)CC(c2ccccc2F)=NO1 (stereo not shown) [Compound 4, 5-((2,6-difluorobenzyloxy)methyl)-3-(2-fluorophenyl)-5-methyl-4,5-dihydroisoxazole] | about 4 times

test system: barnyardgrass, large crabgrass, and annual bluegrass; assay: Post-emergence treatment, grass weeds overall; assay type: in vivo; conditions: 250 g/ha
Description: as §1, §2

Row | Structure (SMILES) | suppression of barnyardgrass, large crabgrass, and annual bluegrass
22 | CC1(COCc2c(F)cccc2F)CC(c2ccccc2F)=NO1 (stereo not shown) [Compound 4, 5-((2,6-difluorobenzyloxy)methyl)-3-(2-fluorophenyl)-5-methyl-4,5-dihydroisoxazole] | greatly suppressed
